The text below walks through data of paper PMC5218480 (PLoS ONE, 2017).

SMILES strings stand for the structures.

The test system of this assay is MV-4-11 cells. Put plainly: Gene expression microarray analysis (Affymetrix PrimeView) and GSEA. The arrangement: RFU PODN (11730768_x_at) / Fold change /veh PODN (11730768_x_at) / RFU LINC00158 (11744669_a_at) / Fold change /veh LINC00158 (11744669_a_at) / RFU DUSP10 (11751237_a_at) / Fold change /veh DUSP10 (11751237_a_at) / RFU ID3 (11757404_x_at) / Fold change /veh ID3 (11757404_x_at) / RFU PLEKHG5 (11737974_s_at) / Fold change /veh PLEKHG5 (11737974_s_at) / RFU LRRC4B (11730491_at) / Fold change /veh LRRC4B (11730491_at) / RFU GIMAP4 (11747438_a_at) / Fold change /veh GIMAP4 (11747438_a_at) / RFU KRT8 (11758183_x_at) / Fold change /veh KRT8 (11758183_x_at) / RFU CNN1 (11734310_a_at) / Fold change /veh CNN1 (11734310_a_at) / RFU VPS37D (11726825_at) / Fold change /veh VPS37D (11726825_at) / RFU C10orf10 (11716522_x_at) / Fold change /veh C10orf10 (11716522_x_at) / RFU KIR2DL2 /// KIR2DL4 /// KIR2DL5A /// KIR2DL5B /// KIR2DS1 /// KIR2DS2 /// KIR2DS3 /// KIR2DS4 /// KIR3DL3 /// KIR3DL3 /// KIR3DS1 (11738374_at) / Fold change /veh KIR2DL2 /// KIR2DL4 /// KIR2DL5A /// KIR2DL5B /// KIR2DS1 /// KIR2DS2 /// KIR2DS3 /// KIR2DS4 /// KIR3DL3 /// KIR3DL3 /// KIR3DS1 (11738374_at) / RFU C1QL1 (11718748_at) / Fold change /veh C1QL1 (11718748_at) / RFU TMPRSS4 (11747572_a_at) / Fold change /veh TMPRSS4 (11747572_a_at) / RFU HAMP (11756126_x_at) / Fold change /veh HAMP (11756126_x_at) / RFU RNFT2 (11725882_a_at) / Fold change /veh RNFT2 (11725882_a_at) / RFU NR4A2 (11747474_a_at) / Fold change /veh NR4A2 (11747474_a_at) / RFU ABCC12 (11746883_a_at) / Fold change /veh ABCC12 (11746883_a_at) / RFU TMEM136 (11760407_x_at) / Fold change /veh TMEM136 (11760407_x_at) / RFU CLDN22 /// WWC2 (11732394_at) / Fold change /veh CLDN22 /// WWC2 (11732394_at) / RFU HLA-DPB1 (11760878_x_at) / Fold change /veh HLA-DPB1 (11760878_x_at) / RFU SPINT1 (11716480_a_at) / Fold change /veh SPINT1 (11716480_a_at) / RFU GAP43 (11754022_s_at) / Fold change /veh GAP43 (11754022_s_at) / RFU A4GNT (11735810_at) / Fold change /veh A4GNT (11735810_at) / RFU PRB3 (11715151_x_at) / Fold change /veh PRB3 (11715151_x_at) / RFU TUBB4B (11761932_at) / Fold change /veh TUBB4B (11761932_at) / RFU CAPN14 (11732068_a_at) / Fold change /veh CAPN14 (11732068_a_at) / RFU TMCC2 (11721928_a_at) / Fold change /veh TMCC2 (11721928_a_at) / RFU IRGQ (11745062_a_at) / Fold change /veh IRGQ (11745062_a_at) / RFU FAM174B (11720279_a_at) / Fold change /veh FAM174B (11720279_a_at) / RFU TMPRSS4 (11748680_a_at) / Fold change /veh TMPRSS4 (11748680_a_at) / RFU FAM212B (11763350_a_at) / Fold change /veh FAM212B (11763350_a_at) / RFU PLEKHG5 (11743358_a_at) / Fold change /veh PLEKHG5 (11743358_a_at) / RFU ZSCAN30 (11745921_a_at) / Fold change /veh ZSCAN30 (11745921_a_at) / RFU CMKLR1 (11741424_a_at) / Fold change /veh CMKLR1 (11741424_a_at) / RFU LOC101060620 /// MAPK8IP1 (11723275_at) / Fold change /veh LOC101060620 /// MAPK8IP1 (11723275_at) / RFU SPTSSB (11747773_x_at) / Fold change /veh SPTSSB (11747773_x_at) / RFU PRSS12 (11739890_at) / Fold change /veh PRSS12 (11739890_at) / RFU BIN1 (11741810_x_at) / Fold change /veh BIN1 (11741810_x_at) / RFU WNT11 (11732464_a_at) / Fold change /veh WNT11 (11732464_a_at) / RFU C10orf10 (11716521_a_at) / Fold change /veh C10orf10 (11716521_a_at) / RFU C5orf56 (11738089_at) / Fold change /veh C5orf56 (11738089_at) / RFU CYB561 (11721691_x_at) / Fold change /veh CYB561 (11721691_x_at) / RFU ANKRD19P (11752326_a_at) / Fold change /veh ANKRD19P (11752326_a_at) / RFU OR2T12 /// OR2T33 /// OR2T8 (11738714_s_at) / Fold change /veh OR2T12 /// OR2T33 /// OR2T8 (11738714_s_at) / RFU VCAN (11748164_a_at) / Fold change /veh VCAN (11748164_a_at) / RFU JSRP1 (11732532_at) / Fold change /veh JSRP1 (11732532_at) / RFU KRTAP10-11 (11738290_x_at) / Fold change /veh KRTAP10-11 (11738290_x_at) / RFU MYO3A (11730013_a_at) / Fold change /veh MYO3A (11730013_a_at) / RFU EBF3 (11725865_a_at) / Fold change /veh EBF3 (11725865_a_at) / RFU CAMK2N1 (11719241_x_at) / Fold change /veh CAMK2N1 (11719241_x_at) / RFU C5orf56 (11738088_a_at) / Fold change /veh C5orf56 (11738088_a_at) / RFU OLFML3 (11715873_a_at) / Fold change /veh OLFML3 (11715873_a_at) / RFU LOC100653217 /// NTM (11731650_a_at) / Fold change /veh LOC100653217 /// NTM (11731650_a_at) / RFU MAPK11 (11762145_a_at) / Fold change /veh MAPK11 (11762145_a_at) / RFU FIZ1 (11724087_x_at) / Fold change /veh FIZ1 (11724087_x_at) / RFU OASL (11726364_x_at) / Fold change /veh OASL (11726364_x_at) / RFU SOX15 (11748057_x_at) / Fold change /veh SOX15 (11748057_x_at) / RFU CD79A (11719716_a_at) / Fold change /veh CD79A (11719716_a_at) / RFU HIST1H1D (11736915_at) / Fold change /veh HIST1H1D (11736915_at) / RFU CASKIN2 (11723855_a_at) / Fold change /veh CASKIN2 (11723855_a_at) / RFU LOC730098 (11760151_x_at) / Fold change /veh LOC730098 (11760151_x_at) / RFU OR4N2 (11742367_at) / Fold change /veh OR4N2 (11742367_at) / RFU PRRT2 (11749266_a_at) / Fold change /veh PRRT2 (11749266_a_at) / RFU SNX32 (11753110_a_at) / Fold change /veh SNX32 (11753110_a_at) / RFU CDHR5 (11726645_a_at) / Fold change /veh CDHR5 (11726645_a_at) / RFU RCAN1 (11760418_a_at) / Fold change /veh RCAN1 (11760418_a_at) / RFU FAM167A (11723789_a_at) / Fold change /veh FAM167A (11723789_a_at) / RFU FAM26E (11764081_at) / Fold change /veh FAM26E (11764081_at) / RFU ISYNA1 (11749810_s_at) / Fold change /veh ISYNA1 (11749810_s_at) / RFU ACY1 (11761880_at) / Fold change /veh ACY1 (11761880_at) / RFU 11764098_at / Fold change /veh 11764098_at / RFU SAMD14 (11745864_x_at) / Fold change /veh SAMD14 (11745864_x_at) / RFU NPB (11741838_a_at) / Fold change /veh NPB (11741838_a_at) / RFU TMPRSS6 (11731388_a_at) / Fold change /veh TMPRSS6 (11731388_a_at) / RFU KRTAP10-2 (11738614_at) / Fold change /veh KRTAP10-2 (11738614_at) / RFU ARHGAP8 /// PRR5-ARHGAP8 (11727945_x_at) / Fold change /veh ARHGAP8 /// PRR5-ARHGAP8 (11727945_x_at) / RFU KRTAP5-7 /// NADSYN1 (11734609_at) / Fold change /veh KRTAP5-7 /// NADSYN1 (11734609_at) / RFU RASL12 (11751679_a_at) / Fold change /veh RASL12 (11751679_a_at) / RFU CDKN2B (11736163_a_at) / Fold change /veh CDKN2B (11736163_a_at) / RFU PRF1 (11729649_at) / Fold change /veh PRF1 (11729649_at) / RFU, ZNF638 /// ZNF638-IT1 / Fold change vs veh, ZNF638 /// ZNF638-IT1 / RFU, PANK3 / Fold change vs veh, PANK3 / RFU, SH3YL1 / Fold change vs veh, SH3YL1 / RFU, ZEB2 / Fold change vs veh, ZEB2 / RFU, NRIP1 / Fold change vs veh, NRIP1 / RFU, PTTG1IP / Fold change vs veh, PTTG1IP / RFU, CAPN2 / Fold change vs veh, CAPN2 / RFU, MED14 / Fold change vs veh, MED14 / RFU, SNORA58 / Fold change vs veh, SNORA58 / RFU, C1orf63 / Fold change vs veh, C1orf63 / RFU, LRRFIP1 / Fold change vs veh, LRRFIP1 / RFU, NDUFAF7 / Fold change vs veh, NDUFAF7 / RFU, SLC12A2 / Fold change vs veh, SLC12A2 / RFU, IBTK / Fold change vs veh, IBTK / RFU, ESF1 / Fold change vs veh, ESF1 / Fold change vs veh, TMEM50B / RFU, TAOK1 / Fold change vs veh, TAOK1 / RFU, ACBD3 / Fold change vs veh, ACBD3 / RFU, TMA16 / Fold change vs veh, TMA16 / RFU, RWDD3 / Fold change vs veh, RWDD3 / RFU, BCAT1 / Fold change vs veh, BCAT1 / RFU, EDEM3 / Fold change vs veh, EDEM3 / RFU, TMEM33 / Fold change vs veh, TMEM33 / RFU, WDR75 / Fold change vs veh, WDR75 / RFU, AHCTF1 / Fold change vs veh, AHCTF1 / RFU, TFRC / Fold change vs veh, TFRC / RFU, ZDHHC17 / Fold change vs veh, ZDHHC17 / RFU, NOM1 / Fold change vs veh, NOM1 / RFU, ARL8B / Fold change vs veh, ARL8B / RFU, ZBTB11 / Fold change vs veh, ZBTB11 / RFU, TAMM41 / Fold change vs veh, TAMM41 / RFU, KIAA1704 /// LOC100996395 / Fold change vs veh, KIAA1704 /// LOC100996395 / RFU, ING1 / Fold change vs veh, ING1 / RFU, TRMT61B / Fold change vs veh, TRMT61B / RFU, FUBP3 / Fold change vs veh, FUBP3 / RFU, TP53 / Fold change vs veh, TP53 / RFU, TNKS2 / Fold change vs veh, TNKS2 / RFU, ZFP14 / Fold change vs veh, ZFP14 / RFU, ACTR2 / Fold change vs veh, ACTR2 / RFU, PPP3R1 / Fold change vs veh, PPP3R1 / RFU, PIK3R1 / Fold change vs veh, PIK3R1 / RFU, HNRNPA1 / Fold change vs veh, HNRNPA1 / RFU, RNF170 / Fold change vs veh, RNF170 / RFU, ZNF28 / Fold change vs veh, ZNF28 / RFU, RNGTT / Fold change vs veh, RNGTT / RFU, OGT / Fold change vs veh, OGT / RFU, BRD1 / Fold change vs veh, BRD1 / RFU, MARS / Fold change vs veh, MARS / RFU, ZNF655 / Fold change vs veh, ZNF655 / RFU, FAHD1 / Fold change vs veh, FAHD1 / RFU, BDP1 / Fold change vs veh, BDP1 / RFU, LRRCC1 / Fold change vs veh, LRRCC1 / RFU, ARID1A / Fold change vs veh, ARID1A / RFU, ZNF146 / Fold change vs veh, ZNF146 / RFU, ZNF330 / Fold change vs veh, ZNF330 / RFU, GPN3 / Fold change vs veh, GPN3 / RFU, C9orf123 / Fold change vs veh, C9orf123 / RFU, N4BP2L2 / Fold change vs veh, N4BP2L2 / RFU, ARFIP1 / Fold change vs veh, ARFIP1 / RFU, FAM179B / Fold change vs veh, FAM179B / RFU, BCL10 / Fold change vs veh, BCL10 / RFU, UHRF1BP1L / Fold change vs veh, UHRF1BP1L / RFU, BET1 / Fold change vs veh, BET1 / RFU, CNOT2 / Fold change vs veh, CNOT2 / RFU, ZNF268 / Fold change vs veh, ZNF268 / Fold change vs veh, ZNF507 / RFU, DGCR2 / Fold change vs veh, DGCR2 / RFU, WDSUB1 / Fold change vs veh, WDSUB1 / Fold change vs veh, HSP90B1 /// MIR3652 / RFU, ADSS / Fold change vs veh, ADSS / RFU, GK / Fold change vs veh, GK / RFU, ZNF148 / Fold change vs veh, ZNF148 / RFU, TAF9 / Fold change vs veh, TAF9 / RFU, SLC1A5 / Fold change vs veh, SLC1A5 / RFU, SLMO2 / Fold change vs veh, SLMO2 / RFU, ABCC4 / Fold change vs veh, ABCC4 / RFU, LOC101060439 /// RAP1B / Fold change vs veh, LOC101060439 /// RAP1B / RFU, RFX7 / Fold change vs veh, RFX7 / RFU, GTPBP10 / Fold change vs veh, GTPBP10 / RFU, CNEP1R1 / Fold change vs veh, CNEP1R1 / RFU, BIVM-ERCC5 /// ERCC5 / Fold change vs veh, BIVM-ERCC5 /// ERCC5 / RFU, ILF3 / Fold change vs veh, ILF3 / RFU 11762660_at / Fold change /veh 11762660_at / RFU VCAN (11757783_s_at) / Fold change /veh VCAN (11757783_s_at) / RFU DDX43 (11728927_at) / Fold change /veh DDX43 (11728927_at) / RFU KRT8 (11758188_x_at) / Fold change /veh KRT8 (11758188_x_at) / RFU NKD1 (11759106_at) / Fold change /veh NKD1 (11759106_at) / RFU SRD5A1 (11742802_a_at) / Fold change /veh SRD5A1 (11742802_a_at) / RFU TPSAB1 /// TPSB2 (11721975_s_at) / Fold change /veh TPSAB1 /// TPSB2 (11721975_s_at) / RFU GSTM3 (11746129_a_at) / Fold change /veh GSTM3 (11746129_a_at) / RFU IL23R (11737362_x_at) / Fold change /veh IL23R (11737362_x_at) / RFU TMEM51 (11727254_a_at) / Fold change /veh TMEM51 (11727254_a_at) / RFU PIWIL2 (11732686_x_at) / Fold change /veh PIWIL2 (11732686_x_at) / RFU ORM1 (11744905_x_at) / Fold change /veh ORM1 (11744905_x_at) / RFU CCDC152 (11743942_at) / Fold change /veh CCDC152 (11743942_at) / RFU ECM1 (11717891_a_at) / Fold change /veh ECM1 (11717891_a_at) / RFU IL23R (11748794_a_at) / Fold change /veh IL23R (11748794_a_at) / RFU TNFAIP8L3 (11732012_x_at) / Fold change /veh TNFAIP8L3 (11732012_x_at) / RFU MBOAT4 (11741988_at) / Fold change /veh MBOAT4 (11741988_at) / RFU 11764193_at / Fold change /veh 11764193_at / RFU TMEM53 (11763286_at) / Fold change /veh TMEM53 (11763286_at) / RFU MAGEB2 (11727129_at) / Fold change /veh MAGEB2 (11727129_at) / RFU TMEM200A (11744735_a_at) / Fold change /veh TMEM200A (11744735_a_at) / RFU CCDC152 (11751479_a_at) / Fold change /veh CCDC152 (11751479_a_at) / RFU FAM211A (11726209_a_at) / Fold change /veh FAM211A (11726209_a_at) / RFU RGS16 (11746705_a_at) / Fold change /veh RGS16 (11746705_a_at) / RFU VCAN (11755009_s_at) / Fold change /veh VCAN (11755009_s_at) / RFU RHOB (11743442_s_at) / Fold change /veh RHOB (11743442_s_at) / RFU RGS16 (11720943_a_at) / Fold change /veh RGS16 (11720943_a_at) / RFU RGS16 (11720944_at) / Fold change /veh RGS16 (11720944_at) / RFU, VPS4B / Fold change vs veh, VPS4B / RFU, CREB1 / Fold change vs veh, CREB1 / RFU, DNAJC13 / Fold change vs veh, DNAJC13 / RFU, GNAQ / Fold change vs veh, GNAQ / RFU, CDK5R1 / Fold change vs veh, CDK5R1 / RFU, ZRANB3 / Fold change vs veh, ZRANB3 / RFU, CUL4A / Fold change vs veh, CUL4A / RFU, CCNY / Fold change vs veh, CCNY / RFU, UFL1 / Fold change vs veh, UFL1 / RFU, COG3 / Fold change vs veh, COG3 / RFU, DIAPH2 / Fold change vs veh, DIAPH2 / RFU, SKA2 / Fold change vs veh, SKA2 / RFU, AFF3 / Fold change vs veh, AFF3 / RFU, LMF1 / Fold change vs veh, LMF1 / RFU, IPO11 / Fold change vs veh, IPO11 / RFU, DFFB / Fold change vs veh, DFFB / RFU, FOXP1 / Fold change vs veh, FOXP1 / RFU, CARD8 / Fold change vs veh, CARD8 / RFU, STRN3 / Fold change vs veh, STRN3 / RFU, ADK / Fold change vs veh, ADK / RFU, RASSF2 / Fold change vs veh, RASSF2 / RFU, WIPF1 / Fold change vs veh, WIPF1 / RFU, LARP1B / Fold change vs veh, LARP1B / RFU, RASA1 / Fold change vs veh, RASA1 / RFU, RB1 / Fold change vs veh, RB1 / RFU, PPFIA1 / Fold change vs veh, PPFIA1 / RFU, MAT2A / Fold change vs veh, MAT2A / RFU, CCT5 / Fold change vs veh, CCT5 / RFU, WDR92 / Fold change vs veh, WDR92 / RFU, CUX1 / Fold change vs veh, CUX1 / RFU, TTC7A / Fold change vs veh, TTC7A / RFU, TMEM135 / Fold change vs veh, TMEM135 / RFU, DEPTOR / Fold change vs veh, DEPTOR / RFU, CPM / Fold change vs veh, CPM / RFU, DNAJB6 / Fold change vs veh, DNAJB6 / RFU, CACNA2D3 / Fold change vs veh, CACNA2D3 / RFU, DTX4 / Fold change vs veh, DTX4 / RFU, TFCP2 / Fold change vs veh, TFCP2 / RFU, GMCL1 /// GMCL1P1 / Fold change vs veh, GMCL1 /// GMCL1P1 / RFU, AEBP2 / Fold change vs veh, AEBP2 / RFU, SNHG1 /// SNORD22 /// SNORD25 /// SNORD26 /// SNORD27 /// SNORD28 /// SNORD29 /// SNORD31 / Fold change vs veh, SNHG1 /// SNORD22 /// SNORD25 /// SNORD26 /// SNORD27 /// SNORD28 /// SNORD29 /// SNORD31 / Fold change (Aza/veh), C12orf56 (ProbeSet 11735607_a_at) / Fold change (ACY-1035/veh), C12orf56 (ProbeSet 11735607_a_at) / Fold change (Aza/veh), FGFR1OP (ProbeSet 11751329_s_at) / Fold change (ACY-1035/veh), FGFR1OP (ProbeSet 11751329_s_at) / Fold change (Aza/veh), VPS36 (ProbeSet 11739960_a_at) / Fold change (ACY-1035/veh), VPS36 (ProbeSet 11739960_a_at) / RFU SYPL1 (11715823_x_at) / Fold change /veh SYPL1 (11715823_x_at) / RFU IGFBP7 (11715501_s_at) / Fold change /veh IGFBP7 (11715501_s_at) / RFU REEP3 (11722064_at) / Fold change /veh REEP3 (11722064_at) / RFU IGLL1 (11728026_x_at) / Fold change /veh IGLL1 (11728026_x_at): dose or concentration left out as unconfirmed. The class given is cell-based, human. The settings on record: ProbeSet 11731461_x_at; LIST D.

Turning to `Nc1ncn([C@@H]2O[C@H](CO)[C@@H](O)[C@H]2O)c(=O)n1` [azacitidine], the “Fold change vs veh, CPM” value stood at 0.79.
